{"source": "PubChem BioAssay (NCI)", "assay_in_all_cases": "NCI tumour cell line growth inhibition, 48 h", "key": {"UO-31 renal": {"test_system": "UO-31 renal"}, "HCT-116 colon": {"test_system": "HCT-116 colon"}, "786-0 renal": {"test_system": "786-0 renal"}, "NCI/ADR-RES ovarian": {"test_system": "NCI/ADR-RES ovarian"}, "MDA-MB-231 breast": {"test_system": "MDA-MB-231 breast"}, "NCI-H460 lung": {"test_system": "NCI-H460 lung"}, "T-47D breast": {"test_system": "T-47D breast"}, "UACC-257 melanoma": {"test_system": "UACC-257 melanoma"}, "A549 NSCLC": {"test_system": "A549 NSCLC"}, "SK-OV-3 ovarian": {"test_system": "SK-OV-3 ovarian"}, "SF-295 CNS": {"test_system": "SF-295 CNS"}, "COLO 205 colon": {"test_system": "COLO 205 colon"}, "HOP-62 NSCLC": {"test_system": "HOP-62 NSCLC"}, "SW-620 colon": {"test_system": "SW-620 colon"}, "HCC-2998 colon": {"test_system": "HCC-2998 colon"}, "OVCAR-4 ovarian": {"test_system": "OVCAR-4 ovarian"}, "HL-60(TB) leukemia": {"test_system": "HL-60(TB) leukemia"}, "PC-3 prostate": {"test_system": "PC-3 prostate"}, "MDA-MB-435": {"test_system": "MDA-MB-435"}, "SN12C renal": {"test_system": "SN12C renal"}, "U251 CNS": {"test_system": "U251 CNS"}, "NCI-H226 lung": {"test_system": "NCI-H226 lung"}, "NCI-H23 lung": {"test_system": "NCI-H23 lung"}, "M14 melanoma": {"test_system": "M14 melanoma"}, "RPMI-8226 leukemia": {"test_system": "RPMI-8226 leukemia"}, "SNB-75 CNS": {"test_system": "SNB-75 CNS"}, "SK-MEL-5 melanoma": {"test_system": "SK-MEL-5 melanoma"}, "SNB-19 CNS": {"test_system": "SNB-19 CNS"}, "RXF 393 renal": {"test_system": "RXF 393 renal"}}, "note": "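All cell lines were grown in 96-well plates and treated with compound for 48 hours. Abbreviation: GI50, concentration required for 50% inhibition of growth. TGI denotes the concentration required for complete inhibition of growth.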"}
{"smiles": "COC(=O)c1ccc2[nH]c(O)c(C(=Nc3ccc(N(C)C(=O)CN4CCN(C)CC4)cc3)c3ccc(OC)cc3)c2c1", "values": [{"measurement": "GI50", "setting": "UO-31 renal", "value": 1.37, "unit": "µM"}, {"measurement": "TGI", "setting": "UO-31 renal", "value": 4.46, "unit": "µM"}, {"measurement": "GI50", "setting": "HCT-116 colon", "value": 0.227, "unit": "µM"}, {"measurement": "TGI", "setting": "HCT-116 colon", "value": 10.1, "unit": "µM"}, {"measurement": "GI50", "setting": "786-0 renal", "value": 0.73, "unit": "µM"}, {"measurement": "TGI", "setting": "786-0 renal", "value": 2.13, "unit": "µM"}, {"measurement": "GI50", "setting": "NCI/ADR-RES ovarian", "value": 12.5, "unit": "µM"}, {"measurement": "TGI", "setting": "NCI/ADR-RES ovarian", "value": 37.2, "unit": "µM"}, {"measurement": "GI50", "setting": "MDA-MB-231 breast", "value": 1.07, "unit": "µM"}, {"measurement": "TGI", "setting": "MDA-MB-231 breast", "value": 2.95, "unit": "µM"}, {"measurement": "GI50", "setting": "NCI-H460 lung", "value": 1.48, "unit": "µM"}, {"measurement": "TGI", "setting": "NCI-H460 lung", "value": 3.76, "unit": "µM"}, {"measurement": "GI50", "setting": "T-47D breast", "value": 1.82, "unit": "µM"}, {"measurement": "TGI", "setting": "T-47D breast", "value": 18.1, "unit": "µM"}, {"measurement": "GI50", "setting": "UACC-257 melanoma", "value": 10.5, "unit": "µM"}, {"measurement": "TGI", "setting": "UACC-257 melanoma", "value": 22.8, "unit": "µM"}, {"measurement": "GI50", "setting": "A549 NSCLC", "value": 2.01, "unit": "µM"}, {"measurement": "TGI", "setting": "A549 NSCLC", "value": 12.1, "unit": "µM"}, {"measurement": "GI50", "setting": "SK-OV-3 ovarian", "value": 0.228, "unit": "µM"}, {"measurement": "TGI", "setting": "SK-OV-3 ovarian", "value": 1.75, "unit": "µM"}, {"measurement": "GI50", "setting": "SF-295 CNS", "value": 1.25, "unit": "µM"}, {"measurement": "TGI", "setting": "SF-295 CNS", "value": 3.49, "unit": "µM"}, {"measurement": "GI50", "setting": "COLO 205 colon", "value": 0.664, "unit": "µM"}, {"measurement": "TGI", "setting": "COLO 205 colon", "value": 2.34, "unit": "µM"}, {"measurement": "GI50", "setting": "HOP-62 NSCLC", "value": 1.57, "unit": "µM"}, {"measurement": "TGI", "setting": "HOP-62 NSCLC", "value": 12.4, "unit": "µM"}, {"measurement": "GI50", "setting": "SW-620 colon", "value": 0.756, "unit": "µM"}, {"measurement": "TGI", "setting": "SW-620 colon", "value": 4.35, "unit": "µM"}, {"measurement": "GI50", "setting": "HCC-2998 colon", "value": 2.12, "unit": "µM"}, {"measurement": "TGI", "setting": "HCC-2998 colon", "value": 10.6, "unit": "µM"}, {"measurement": "GI50", "setting": "OVCAR-4 ovarian", "value": 0.928, "unit": "µM"}, {"measurement": "TGI", "setting": "OVCAR-4 ovarian", "value": 3.14, "unit": "µM"}, {"measurement": "GI50", "setting": "HL-60(TB) leukemia", "value": 0.712, "unit": "µM"}, {"measurement": "TGI", "setting": "HL-60(TB) leukemia", "value": 3.15, "unit": "µM"}, {"measurement": "GI50", "setting": "PC-3 prostate", "value": 1.16, "unit": "µM"}, {"measurement": "TGI", "setting": "PC-3 prostate", "value": 7.77, "unit": "µM"}, {"measurement": "GI50", "setting": "MDA-MB-435", "value": 2.05, "unit": "µM"}, {"measurement": "TGI", "setting": "MDA-MB-435", "value": 14.5, "unit": "µM"}, {"measurement": "GI50", "setting": "SN12C renal", "value": 0.41, "unit": "µM"}, {"measurement": "TGI", "setting": "SN12C renal", "value": 13.1, "unit": "µM"}, {"measurement": "GI50", "setting": "U251 CNS", "value": 1.09, "unit": "µM"}, {"measurement": "TGI", "setting": "U251 CNS", "value": 2.48, "unit": "µM"}, {"measurement": "GI50", "setting": "NCI-H226 lung", "value": 0.906, "unit": "µM"}, {"measurement": "TGI", "setting": "NCI-H226 lung", "value": 18.9, "unit": "µM"}, {"measurement": "GI50", "setting": "NCI-H23 lung", "value": 1.25, "unit": "µM"}, {"measurement": "TGI", "setting": "NCI-H23 lung", "value": 3.64, "unit": "µM"}, {"measurement": "GI50", "setting": "M14 melanoma", "value": 0.724, "unit": "µM"}, {"measurement": "TGI", "setting": "M14 melanoma", "value": 2.28, "unit": "µM"}, {"measurement": "GI50", "setting": "RPMI-8226 leukemia", "value": 1.46, "unit": "µM"}, {"measurement": "TGI", "setting": "RPMI-8226 leukemia", "value": 4.4, "unit": "µM"}, {"measurement": "GI50", "setting": "SNB-75 CNS", "value": 0.294, "unit": "µM"}, {"measurement": "TGI", "setting": "SNB-75 CNS", "value": 8.27, "unit": "µM"}, {"measurement": "GI50", "setting": "SK-MEL-5 melanoma", "value": 1.35, "unit": "µM"}, {"measurement": "TGI", "setting": "SK-MEL-5 melanoma", "value": 2.77, "unit": "µM"}, {"measurement": "GI50", "setting": "SNB-19 CNS", "value": 2.1, "unit": "µM"}, {"measurement": "TGI", "setting": "SNB-19 CNS", "value": 10, "unit": "µM"}, {"measurement": "GI50", "setting": "RXF 393 renal", "value": 0.466, "unit": "µM"}, {"measurement": "TGI", "setting": "RXF 393 renal", "value": 1.82, "unit": "µM"}]}
